Entries after “also recorded” stand apart in the source; their conditions may differ.
Tests used:
LPS-primed THP-1 cells = assay: Cytokine production in LPS-primed THP-1 cells (ELISA of culture supernatant); format: cell-based, human
Description: (§1) Human monocyte cell line THP-1 (JCRB registration number: JCRB0112) was suspended at 1×10^6 cells/mL in RPMI1640 medium containing 1 μg/mL lipopolysaccharide (LPS) and 10% FBS, and incubated in a CO2 incubator for 3 hours for cell priming. The cell suspension was centrifugated, the cells were resuspended at 1×10^6 cells/mL in RPMI1640 medium containing 10% FBS, and the cell suspension was added to a 24-well plate at 500 μL/well. An OSK-1 solution was prepared at a 2-fold higher concentration than the final concentration in RPMI1640 medium containing 10% FBS and added to the plate at 500 μL/well. After about 16 hours, the culture supernatant was harvested, and the cytokine concentrations in the supernatant were measured by ELISA.
THP-1 cells were suspended at 1×10^6 cells/mL in RPMI1640 medium containing 1 μg/mL LPS and 10% FBS, and incubated in a CO2 incubator for 3 hours for cell priming. The cell suspension was centrifugated, the cells were resuspended at 1×10^6 cells/mL in RPMI1640 medium containing 10% FBS, and the cell suspension was added to a 24-well plate at 500 μL/well. […] After about 16 hours, the culture supernatant was harvested, and the cytokine concentrations in the supernatant were measured by ELISA.

inflammasomes [1] = assay: Inflammasome activation: IL-1β and TNFα production in NLRP3-knockdown and control siRNA THP-1 cells; format: cell-based, human; conditions: OSK-1 10 μg/mL, 16 hours
Description: THP-1 cells were transfected with a siRNA against the inflammasome component NLRP3 (NOD-like receptor family, pyrin domain containing 3) (final concentration: 100 nM, Hs_CIAS 1_6 and Hs_CIAS 1_9, manufactured by QIAGEN) or a control siRNA using a transfection reagent (6 μL/well, HiPerFect Transfection Reagent, manufactured by QIAGEN). After overnight culture, the expression level of NLRP3 was determined by western blotting.
as §1, with “Each type of the” for “Human monocyte cell line”, “cells” for “(JCRB registration number: JCRB0112)”, “LPS” for “lipopolysaccharide (LPS)”, “After” for “After about”, “IL-1β and TNFα” for “cytokine”

inflammasomes [2] = assay: Inflammasome activation: IL-1β production in THP-1 cells with or without LPS priming, cathepsin B inhibitor or caspase-1 inhibitor; format: cell-based, human
Description: THP-1 cells were suspended at 1×10^6 cells/mL in RPMI1640 medium containing 1 μg/mL LPS and 10% FBS, and incubated in a CO2 incubator for 3 hours for cell priming. The cell suspension was centrifugated, the cells were resuspended at 1×10^6 cells/mL in RPMI1640 medium containing 10% FBS, and the cell suspension was added to a 96-well plate at 100 μL/well. The cathepsin B inhibitor Ca-074-Me (final concentration: 10 μM), the caspase-1 inhibitor Z-YVAD-FMK (final concentration: 10 μM) or the medium was added to the wells. After that, OSK-1 or the medium was added to the wells, and the cells were cultured in a CO2 incubator. After 16 hours, the culture supernatant was harvested, and the cytokine concentrations in the supernatant were measured by ELISA.

C57/BL6 mice = assay: Adjuvant effect in mice (anti-Ang II antibody titer after Ang II-KLH vaccine); format: in vivo; conditions: Ang II-KLH 2 μg/animal + OSK-1 100 μg/animal intracutaneously 3 times at 2-week intervals
Description: For the Freund's adjuvant group, complete Freund's adjuvant was used at the first administration, and incomplete Freund's adjuvant was used at the second and third administration. Blood was drawn before the first administration and 2, 4, 6 and 8 weeks after the first administration, and the anti-Ang II antibody titer was measured.
The antibody titer was measured in the same manner as in Example 7.

[3] = tested on: LPS-primed RAW 264.7 cells; assay: Cytokine production in LPS-primed RAW 264.7 cells (ELISA); format: cell-based, mouse; conditions: about 16 hours
Description: as §1, with “RAW 264.7 cells were” for “Human monocyte cell line THP-1 (JCRB registration number: JCRB0112) was”, “DMEM” for “RPMI1640”, “50 ng/mL LPS” for “1 μg/mL lipopolysaccharide (LPS)”

C57BL/6 mice = assay: Induction of WT1-specific immunity in mice (ELISpot of splenocytes); format: in vivo; conditions: group (3): WT1 peptide 15 μg/mouse + OSK-1 100 μg/mouse, once a week for 4 weeks
Description: The OSK-1 peptide and a WT1 peptide were conjugated via ε-Acp as a spacer to form an “OSK-1-WT1 conjugate vaccine”. The OSK-1-WT1 conjugate vaccine was evaluated for the ability to induce WT1-specific immunity in mice. Mice were divided into the following 5 groups (3 animals per group): (1) physiological saline, (2) WT1 peptide (15 μg/mouse)+Incomplete Freund's Adjuvant (IFA, SIGMA; Cat#F5506, 50 μL/mouse), (3) WT1 peptide (15 μg/mouse)+OSK-1 (100 μg/mouse), (4) OSK-1-WT1 conjugate vaccine (50 μg/mouse), and (5) OSK-1-WT1 conjugate vaccine (300 μg/mouse). In each group, the test substance was administered to C57BL/6 mice once a week for 4 weeks. At 2 weeks after the 4th administration, the spleen was excised from each immunized mouse, and the ELISpot assay was performed. The specific procedure is as follows. Splenocytes were prepared from the excised spleen and seeded on a filter plate coated with an anti-IL-4 antibody or an anti-IFNγ antibody. The WT1 peptide or the OSK-1-WT1 peptide was added to the wells, and the splenocytes were cultured for 3 days. After that, each well of the filter plate was stained and the spots of IL-4- or IFNγ-producing cells was counted.

[4] = compared with alum or the CpG nucleotide

ELKLIFLHRLKRLRKRLKRK (Ac-ELKLIFLHRLKRLRKRLKRK-NH2) [OSK-1]
production of the cytokines (IL-1β, IL-18, TNFα and IL-6 concentrations in the culture supernatant) (LPS-primed THP-1 cells; about 16 hours, ELISA): induce the production of the cytokines in the LPS-primed THP-1 cells in an OSK-1 concentration dependent manner
production of IL-1β (LPS-primed THP-1 cells; [4]): more strongly induced
production of TNFα (LPS-primed THP-1 cells; [4]): more strongly induced
production of IL-1β (inflammasomes [1]; LPS-primed NLRP3-knockdown THP-1 cells): the induction of IL-1β production by OSK-1 was inhibited
production of TNFα (inflammasomes [1]; NLRP3-knockdown and control siRNA THP-1 cells): induced by OSK-1 regardless of whether NLRP3 expression was knocked down or not
IL-1β production (inflammasomes [2]; LPS-primed THP-1 cells versus non-primed THP-1 cells, 16 hours): induced the production of IL-1β only in the LPS-primed THP-1 cells
IL-1β production (inflammasomes [2]; LPS-primed THP-1 cells, in the presence of caspase-1 inhibitor Z-YVAD-FMK 10 μM): also inhibited by Z-YVAD-FMK
IL-1β production (inflammasomes [2]; LPS-primed THP-1 cells, in the presence of cathepsin B inhibitor Ca-074-Me 10 μM): inhibited by Ca-074-Me
anti-Ang II antibody titer (C57/BL6 mice): increase in the anti-Ang II antibody titer was observed; also recorded: smaller than that in the Freund's adjuvant (FA) group, but comparable to that in the alum group
production of the cytokines (IL-1β, IL-18, TNFα and IL-6) [3]: induced the production of the cytokines in the LPS-primed RAW 264.7 cells in an OSK-1 concentration dependent manner
IFNγ-producing cells in response to stimulation with the WT1 peptide (ELISpot) (C57BL/6 mice): more cells produced IFNγ in response to the stimulation with the WT1 peptide
